According to US7495028B2, “R-bambuterol, its preparation and therapeutic uses” (priority 2002, dated 2009):
Counter-ions that a name gives are not always drawn. Marks after values point to notes of the source that are not given here.

Experiments:
β-2 receptor = conditions: Hartley and Middlemis 1971; cited from earlier work
[1] = tested on: isolated guinea pig lung strip; assay: Bronchodilating effect on isolated guinea pig lung strip pre-contracted by histamine; type: cell-based
Description: Test method: Guinea pigs (Dunlin-Hartley, ca. 400 g) were used. After anesthesia, the chest was opened and sections of lung tissue about 3 mm in width, were dissected quickly from a lower lobe with the longitudinal axis of the strip cut parallel to the bronchus. The strips were further divided into two thin strips with approximate dimension of 20×3×3 mm. With threads attached to each end, strips were mounted in organ baths containing aerated Krebs solution at 37° C. A load of between 0.5-1.0 g force was applied by gentle stretching, and the tissue was allowed to equilibrate for 60 min with the solution changed at 20 min intervals. The lung strips were pre-contracted by 10^−5 M histamine, then an equal volume of solution containing R-bambuterol or racemic bambuterol was added cumulatively into the organ bath. The contractions of the lung strips were measured isometrically with force-displacement transducers and recorded.
Based on the pharmacokinetic studies of racemic bambuterol hydrochloride, about 50% of absorbed bambuterol is hydrolyzed to terbutaline, the active-parent form, in plasma. There is little cholinesterase in the lung strip preparation, so neither the test compound nor racemic bambuterol has significant effects. In order to test the compound of invention in vitro on isolated guinea-pig lung tissue, R-bambuterol and racemic bambuterol were administrated orally to guinea pigs at a dose of 8 mg/kg. Four hours later, blood was collected from the animals, and the serum containing the active parent form of the test compounds were prepared. The concentration of the active parent form, i.e. terbutaline, in serum measured using BPLC, was 64-70 ng/ml in the animal treated with R-bambuterol and 62-69 ng/ml in the animal treated with racemic bambuterol. The serum containing the active form of test compound was then added into the organ in a certain volume, so that the final concentration of the active forms of test compounds was 0.25 ng/ml in the organ bath. Concentration-response relationships were obtained using a cumulative dose schedule by adding the same volume of the serum into the organ bath. The test using the serum containing the active form of racemic bambuterol was done in parallel with the test compound in the same manner as described above.

rats = assay: Cardiovascular effects in anesthetized rats; type: in vivo; conditions: both, Sprague Dawley, rat, in vivo, 20 min
Source text: Test method: Rats (Sprague Dawley, 250-300 g) were randomized into two groups (n=6, equal sexes). After anesthesia, plastic tubing was introduced into a carotid artery of each animal and connected to pressure transducers to record mean artery pressure (MBP) and heart rate (HR). Another tube was introduced into the left ventricular chamber via the another carotid artery and connected to a pressure transducer. Left ventricular systolic pressure (LVSP) and the first order of differential of LVSP (dp/dt) as an index for inotropic effects were recorded. R-Bambuterol and racemic bambuterol hydrochloride were dissolved in saline and administrated intravenously at 30 mg/kg to each animal. The HR, MBP and Max dp/dt were measured before treatment (control) and after the treatments when the maximum response occurred, and 20 min after treatment as indication of recovery.

[2] = tested on: sensitized conscious guinea pigs exposed to aerosol ovalbumin; assay: Protection against allergic bronchospasm in ovalbumin-sensitized conscious guinea pigs; type: in vivo, guinea pig
Description: Test method: Guinea pigs (Dunkin-Hartley strain, 200±10 g, equal sexes) were used in this study. Ovalbumin (5%) solution was injected into guinea pigs subcutaneously and intraperitoneally to sensitize the animals. Male and female sensitized animals were kept separately for 14 days, and food and water was available ad libitum. On day 14 after sensitization, animals were randomized into groups of 8 each. The animals were treated orally with saline (control) or various concentrations of R-bambuterol or racemic bambuterol in saline. Four hours after the treatment, each animal was restrained in a glass chamber. After stabilization the animal was exposed to an aerosol of ovalbumin generated by a nebulizer from a 5% solution of ovalbumine at a rate of 0.5 ml/min for a period of 15 seconds. The animal was removed from the chamber, and the behavior of the animal was monitored. The number of the sensitized animals which collapsed were counted, and the latency time, i.e. the time from the exposure to aerosol ovalbumin to the collapse of the animal, was recorded.

[3] = tested on: conscious guinea pigs exposed to aerosol histamine; assay: Protection against histamine-evoked asthma in conscious guinea pigs; type: in vivo, guinea pig; conditions: for Collapsed n: 8 animals; for Potency relative to racemic bambuterol: bronchospasmolytic / protective effect, hydrochloride; for % collapse / Latency time of collapse: dose-response, four hours before exposure
Description: Test methods: Guinea pigs (Dunki-Hartley strain, 190±30 g) were fasted overnight but given water ad libidum. The animals were restrained individually in a glass chamber and exposed to aerosol histamine generated by a nebulizer from a 0.2% aqueous solution of histamine under constant pressure at dose of 0.5 ml/min for a period of 15 sec. The animal was removed from the chamber, and its behavior was monitored. A sign of collapse and the latency time from exposure to collapse were recorded. Only the animals with latency time less than 120 sec, as an indication of sensitive to histamine, were chosen for later experiments. The animals chosen were allowed to recover completly by resting for 24 hours before experiments. Test compounds and racemic bambuterol hydrochloride were dissolved in saline.
Time course of the effect of test compounds: R-Bambuterol hydrochloride or racemic bambuterol hydrochloride at 2, 4 and 8 mg/kg, and vehicle alone, were administered to the guinea pigs orally via a stomach tube. Exposure of treated animals to aerosol histamine (as above) was done at 1, 4 and 24 hours after treatment. For each experimental group, there were a total of 8 animals with equal number of both sexes, and no repeated exposure was made for individual experimental animals.
Study of dose-response of test compounds: Four hours before the exposure to aerosol histamine, animals were randomized into groups (n=8, equal male and female), and given R-bambuterol hydrochloride or racemic bambuterol in doses of 0.25, 0.5, 1.0, 2.0, 4.0 and 8.0 mg/kg, and vehicle control, orally via a stomach tube. The numbers of collapsed animal as a result of asthmatic reaction to aerosol histamine were counted, and the latency times were recorded. Both of these parameters were used as quantitative measurements of the protective effects of the treatments on bronchospasm evoked by aerosol histamine.

hyperlipidemia mice = assay: Lipid lowering effects in Tyloxapol-induced hyperlipidemia mice; type: in vivo; conditions: for TG lipid level: plasma 24 hours after Tyloxapol
Description: Test method: Male and […] mice, Kunming strain, 35 each, weight 18-22 grams, were used. Food and water were available ad libitum. The animals were randomized into 7 groups (n=10). Groups of animals were administered orafly, via a stomach tube, vehicle (distilled water, two groups), R-bambuterol hydrochloride (10 mg/kg and 5 mg/kg), racemic bambuterol hydrochloride (10 mg/kg and 5 mg/kg) and simvastatin (10 mg/kg) once a day for four days. With the exception of one vehicle—treated group (as control), Tyloxapol (400 mg/kg, Sigma Chemical Co.) was injected into the peritoneal cavity of the mice of all groups immediately after the last treatment on the fourth day in order to induce hyperlipidemia. All the animals were fasted overnight prior to the injection of Tyloxapol. Blood samples were collected by cardiac puncture 24 hours after the injection of Tyloxapol. The blood samples were processed to plasma, and concentration of triglycerides (TG), cholesterol (CHO), high density lipoprotein (HDL), low density lipoprotein (LDL) and very low density lipoprotein (VLDL) were measured with an autoblood analyzer (Olympic, Japan).

[4] = 0.25 ng/ml active form in organ bath, 10^−5 M histamine pre-contraction
[5] = Tyl + 10 mg (10 mg/kg oral once a day for four days)

CC(C)(C)NC[C@H](O)c1ccc(O)c(CO)c1 [R-enantiomer of albuterol, albuterol]
Potency as β-2 receptor agonist relative to the S-enantiomer (β-2 receptor): approximately 80 times

CC(C)(C)NC[C@H](O)c1cc(O)cc(O)c1 [Active form of R-bambuterol, R-terbutaline]
Percent of Relaxation [1, 4]: 12.4 ± 1.3%
Percent of Relaxation ([1]; 0.50 ng/ml active form): 19.5 ± 2.2%
Percent of Relaxation ([1]; 0.75 ng/ml active form): 43.7 ± 1.8%
Percent of Relaxation ([1]; 1.00 ng/ml active form): 60.1 ± 5.7%
Percent of Relaxation ([1]; 1.25 ng/ml active form): 75.6 ± 8.4%

CC(C)(C)NCC(O)c1cc(O)cc(O)c1 (racemic) [Active form of RS-bambuterol, racemic terbutaline]
Percent of Relaxation [1, 4]: 7.6 ± 0.8%
Percent of Relaxation ([1]; 0.50 ng/ml active form): 10.8 ± 2.1%
Percent of Relaxation ([1]; 0.75 ng/ml active form): 26.5 ± 3.4%
Percent of Relaxation ([1]; 1.00 ng/ml active form): 39.6 ± 4.0%
Percent of Relaxation ([1]; 1.25 ng/ml active form): 45.7 ± 6.7%

CN(C)C(=O)Oc1cc(OC(=O)N(C)C)cc([C@@H](O)CNC(C)(C)C)c1 [R-bambuterol, R-Bambuterol hydrochloride]
HR 20 min after Δ, % of Control (rats): 3.7%
Maxdp/dt 20 min after Δ, % of control (rats): 5.0%
% collapsed ([2]; 1 mg/kg oral): 63%
Latency time ([2]; 1 mg/kg oral): 193 ± 30 s
Number collapsed ([2]; 1 mg/kg oral (n = 8), four hours before aerosol ovalbumin): 5
% collapsed ([2]; 4 mg/kg oral): 25%
Latency time ([2]; 4 mg/kg oral): 293 ± 27 s
Number collapsed ([2]; 4 mg/kg oral (n = 8)): 2
% collapsed ([2]; 8 mg/kg oral): 0%
Latency time ([2]; 8 mg/kg oral): >360*# sec
Collapsed % ([3]; 2 mg/kg oral, 1st Hour): 50.0* %
Latency ([3]; 2 mg/kg oral, 1st Hour): 231 ± 70 s
Collapsed n ([3]; 2 mg/kg oral, 1st Hour): 4.0
Collapsed % ([3]; 2 mg/kg oral, 4th Hour): 25.0* %
Latency ([3]; 2 mg/kg oral, 4th Hour): 295 ± 65 s
Collapsed n ([3]; 2 mg/kg oral, 4th Hour): 2.0
Collapsed % ([3]; 2 mg/kg oral, 24th Hour): 62.5%
Latency ([3]; 2 mg/kg oral, 24th Hour): 202 ± 67 s
Collapsed n ([3]; 2 mg/kg oral, 24th Hour): 5.0
Collapsed % ([3]; 4 mg/kg oral, 1st Hour): 37.5* %
Latency ([3]; 4 mg/kg oral, 1st Hour): 258 ± 71 s
Collapsed n ([3]; 4 mg/kg oral, 1st Hour): 3.0
Collapsed % ([3]; 4 mg/kg oral, 4th Hour): 0.0* %
Latency ([3]; 4 mg/kg oral, 4th Hour): >360 s
Collapsed n ([3]; 4 mg/kg oral, 4th Hour): 0.0
Collapsed % ([3]; 4 mg/kg oral, 24th Hour): 50.0%
Latency ([3]; 4 mg/kg oral, 24th Hour): 242 ± 64 s
Collapsed n ([3]; 4 mg/kg oral, 24th Hour): 4.0
Collapsed % ([3]; 8 mg/kg oral, 1st Hour): 25.0%
Latency ([3]; 8 mg/kg oral, 1st Hour): 299 ± 57 s
Collapsed n ([3]; 8 mg/kg oral, 1st Hour): 2.0
Collapsed % ([3]; 8 mg/kg oral, 4th Hour): 0.0%
Latency ([3]; 8 mg/kg oral, 4th Hour): >360 s
Collapsed n ([3]; 8 mg/kg oral, 4th Hour): 0.0
Collapsed % ([3]; 8 mg/kg oral, 24th Hour): 37.5%
Latency ([3]; 8 mg/kg oral, 24th Hour): 256 ± 72 s
Collapsed n ([3]; 8 mg/kg oral, 24th Hour): 3.0
ED50 ([3]; Cavia porcellus, 4 h, oral, four hours before aerosol histamine, read-out: ED50 (protection against collapse)): 0.91 mg/kg
Potency relative to racemic bambuterol ([3]; oral): about twice
Potency relative to racemic bambuterol ([3]; oral, listed as R enantiomer of bambuterol): about twice
Potency relative to racemic bambuterol ([3]; oral, listed as R-Bambuterol): about twice
% collapse ([3]; 0.25 mg/kg oral): 87.5%
Latency time of collapse ([3]; 0.25 mg/kg oral): 110 s
% collapse ([3]; 0.5 mg/kg oral): 75%
Latency time of collapse ([3]; 0.5 mg/kg oral): 160 s
% collapse ([3]; 1 mg/kg oral): 50%
Latency time of collapse ([3]; 1 mg/kg oral): 209 s
% collapse ([3]; 2 mg/kg oral): 25%
Latency time of collapse ([3]; 2 mg/kg oral): 295 s
% collapse ([3]; 4 mg/kg oral): 0%
Latency time of collapse ([3]; 4 mg/kg oral): >360 s
% collapse ([3]; 8 mg/kg oral): 0%
Latency time of collapse ([3]; 8 mg/kg oral): >360 s
Onset of protective effects after administration ([3]; oral 2 to 8 mg/kg): one
Time of maximum protective effects after administration ([3]; oral 2 to 8 mg/kg): 4 h
Dose at which full protective effect was seen ([3]; oral, collapse after aerosol histamine): 4 mg/kg
Dose at which maximum effects on latency were seen ([3]; oral, latency time to collapse): 4 mg/kg
CHO lipid level (hyperlipidemia mice; Tyl + 5 mg): 189 ± 83 mg/dL
HDL lipid level (hyperlipidemia mice; Tyl + 5 mg): 42 ± 27 mg/dL
LDL lipid level (hyperlipidemia mice; Tyl + 5 mg): 34 ± 15 mg/dL
VLDL lipid level (hyperlipidemia mice; Tyl + 5 mg): 50 ± 26 mg/dL
TG lipid level (hyperlipidemia mice; Tyl + 5 mg (5 mg/kg oral once a day for four days)): 323 ± 176 mg/dL
CHO lipid level (hyperlipidemia mice; Tyl + 10 mg): 119 ± 16 mg/dL
HDL lipid level (hyperlipidemia mice; Tyl + 10 mg): 53.3 ± 6.7 mg/dL
LDL lipid level (hyperlipidemia mice; Tyl + 10 mg): 29 ± 5 mg/dL
VLDL lipid level (hyperlipidemia mice; Tyl + 10 mg): 35 ± 7 mg/dL
TG lipid level (hyperlipidemia mice; [5]): 105 ± 18 mg/dL

CCC(C)(C)C(=O)O[C@H]1C[C@@H](C)C=C2C=C[C@H](C)[C@H](CC[C@@H]3C[C@@H](O)CC(=O)O3)[C@H]21 [simvastatin]
CHO lipid level (hyperlipidemia mice; Tyl + 10 mg): 176 ± 64 mg/dL
HDL lipid level (hyperlipidemia mice; Tyl + 10 mg): 49 ± 16 mg/dL
LDL lipid level (hyperlipidemia mice; Tyl + 10 mg): 42 ± 11 mg/dL
VLDL lipid level (hyperlipidemia mice; Tyl + 10 mg): 85 ± 50 mg/dL
TG lipid level (hyperlipidemia mice; [5]): 311 ± 187 mg/dL
